Experimental data as given in US20040057908A1, “Oral compositions and use thereof” (priority 2003, published 2004).
≈ marks a conversion by molar mass, not a printed value. Where two headings read alike, the source gives them in different places.

Assays:
GTF D [1] = biological target: T1, GTF D (Streptococcus mutans serotype c, UniProt P49331); experiment: GTF activity in solution, GTF D; type: biochemical; settings: for GTF D sol. % of Inhib.: mean (SD)
T1 construct: made in house; host or cells: Streptococcus milleri NH5 (culture supernatant)
Experimental: (§1) Glucosyltransferase activity was measured by the incorporation of [^14C-glucose] from labeled sucrose (NEN Research Products, Boston, Mass.) into glucans (Germaine et al., 1974; Venkitaraman et al., 1995). The GTF enzyme added to each sample for all assays was equivalent to the amount required to incorporate 1.0-1.5 μmol of glucose over the four hours reaction (1.0-1.5 units).
(§2) For solution assays, purified GTF B, C, D and Ss were mixed with a two-fold dilution series of the test compounds (concentration ranging from 125 to 500 μM) and incubated with [^14C-glucose]-sucrose substrate (0.2 μCi/ml) (200.0 mmol/l sucrose, 40 μmol/l dextran 9000, 0.02% sodium azide in adsorption buffer—50 mM KCl, 1.0 mM KPO4, 1.0 mM CaCl2, 0.1 mM MgCl2−pH=6.5) to reach a final concentration of 100 mmol/l sucrose (200 μl final volume). For the control, the same reaction was carried out, where ethanol:DMSO (final concentration of 7.5% and 1.25%, v/v) or ethanol (final concentration of 5%, v/v) replaced the test agent solutions. The samples were incubated 37° C. with rocking for 4 h. After incubation, ice-cold ethanol (1.0 ml) was added and the samples were stored for 18 h, 4° C. for precipitation of glucans. Radiolabeled glucan was determined by scintillation counting (Germaine et al., 1974; Venkitaraman et al., 1995).

GTF C [2] = biological target: T2, GTF C (Streptococcus mutans serotype c, UniProt P13470); experiment: GTF activity in solution, GTF C; type: biochemical; settings: for GTF C sol. % of Inhib.: mean (SD)
T2 construct: The supernatant was carefully collected as the source of GTF C; made in house; host or cells: Streptococcus mutans WHB 410 (endogenous gtfC; urea/Triton extract of washed cells, hydroxyapatite chromatography)
Experimental: as §1, §2

GTF Ss [3] = biological target: T3, GTF Ss (Streptococcus sanguinis, UniProt A3CLJ9); experiment: GTF activity in solution, GTF Ss; type: biochemical, S. sanguinis; settings: for GTF Ss sol. % of Inhib.: mean (SD)
Experimental: as §1, §2

[4] = system: Mutans Streptococci Strains; experiment: MIC and MBC, broth dilution, all strains stated together; type: cell-based, S. mutans (GS-5 and UA159) and S. sobrinus 6715
Experimental: (§3) The minimum inhibitory concentration (MIC) and minimum bactericidal concentration (MBC) were determined for each test compound according to the National Committee for Clinical Laboratory Standards guidelines (Tentative standard M26-T, 1992; NCCLS Publication No. M7-A5, 2000) and Koo et al. (2000b). The broth microdilution and macrodilution methods (in TSB) were used for the antibacterial tests. The starting inoculum was 5×10^5 CFU/ml and the concentrations of test compounds ranged from 15.6 to 500 μM (two-fold dilutions). The MICs and MBCs were determined in quadruplicate in at least 3 different experiments.

GTF B [5] = biological target: T4, GTF B (Streptococcus mutans serotype c, UniProt P08987); experiment: GTF activity in solution, GTF B; type: biochemical; settings: for GTF B sol. % of Inhib.: mean (SD)
T4 construct: made in house; host or cells: Streptococcus milleri KSB8 (culture supernatant)
Experimental: as §1, §2

[6] = system: Streptococcus sobrinus 6715; experiment: MIC and MBC, broth dilution; type: cell-based
Experimental: as §3

[7] = system: Streptococcus mutans UA 159; experiment: MIC and MBC, broth dilution; type: cell-based
Experimental: as §3

[8] = system: Streptococcus mutans GS-5; experiment: MIC and MBC, broth dilution; type: cell-based
Experimental: as §3

GTF C [9] = biological target: T2, GTF C; experiment: GTF activity adsorbed onto sHA surface, GTF C; type: biochemical; settings: for GTF C surf. % of Inhib.: mean (SD)
Experimental: as §1
(§4) For surface assays, the GTFs were adsorbed to hydroxyapatite beads coated with clarified whole saliva (free of GTF activity), as detailed elsewhere (Koo et al., 2000c; Schilling and Bowen, 1988, Venkitaraman et al., 1995). The saliva-coated hydroxyapatite (sHA) beads were exposed to sufficient enzyme to saturate the surface as determined experimentally. Following the adsorption of the enzyme, the beads were washed 3 times with buffer to remove the loosely bound material and exposed to 300 μl of the two-fold dilution series of test compounds (or control) for 30 min. at the same concentrations described above. The beads were washed and exposed to 300 μl [^14C-glucose]-sucrose substrate (100.0 mmol/l sucrose, final concentration). The radiolabeled glucan formed was collected and quantified by scintillation counting (Germaine et al., 1974; Venkitaraman et al., 1995). All the solution and surface assays were done in quadruplicate in at least 3 different experiments.

GTF B [10] = biological target: T4, GTF B; experiment: GTF activity adsorbed onto saliva-coated hydroxyapatite (sHA) surface, GTF B; type: biochemical; settings: for GTF B surf. % of Inhib.: mean (SD)
Experimental: as §1, §4

GTF D [11] = biological target: T1, GTF D; experiment: GTF activity adsorbed onto sHA surface, GTF D; type: biochemical; settings: for GTF D surf. % of Inhib.: mean (SD)
Experimental: as §1, §4

GTF Ss [12] = biological target: T3, GTF Ss; experiment: GTF activity adsorbed onto sHA surface, GTF Ss; type: biochemical, S. sanguinis; settings: for GTF Ss surf. % of Inhib.: mean (SD)
Experimental: as §1, §4

[13] = all strains tested (S. mutans GS-5, UA159, S. sobrinus 6715), read-out: MIC
[14] = read-out: GTF D sol. % of Inhib.
[15] = read-out: GTF C sol. % of Inhib.
[16] = read-out: GTF Ss sol. % of Inhib.
[17] = read-out: GTF B sol. % of Inhib.
[18] = read-out: GTF C surf. % of Inhib.
[19] = read-out: GTF B surf. % of Inhib.
[20] = read-out: GTF D surf. % of Inhib.
[21] = read-out: GTF Ss surf. % of Inhib.
[22] = Streptococcus mutans, all strains tested (S. mutans GS-5, UA159, S. sobrinus 6715), read-out: MIC

T2 sequence (P13470 35-1455): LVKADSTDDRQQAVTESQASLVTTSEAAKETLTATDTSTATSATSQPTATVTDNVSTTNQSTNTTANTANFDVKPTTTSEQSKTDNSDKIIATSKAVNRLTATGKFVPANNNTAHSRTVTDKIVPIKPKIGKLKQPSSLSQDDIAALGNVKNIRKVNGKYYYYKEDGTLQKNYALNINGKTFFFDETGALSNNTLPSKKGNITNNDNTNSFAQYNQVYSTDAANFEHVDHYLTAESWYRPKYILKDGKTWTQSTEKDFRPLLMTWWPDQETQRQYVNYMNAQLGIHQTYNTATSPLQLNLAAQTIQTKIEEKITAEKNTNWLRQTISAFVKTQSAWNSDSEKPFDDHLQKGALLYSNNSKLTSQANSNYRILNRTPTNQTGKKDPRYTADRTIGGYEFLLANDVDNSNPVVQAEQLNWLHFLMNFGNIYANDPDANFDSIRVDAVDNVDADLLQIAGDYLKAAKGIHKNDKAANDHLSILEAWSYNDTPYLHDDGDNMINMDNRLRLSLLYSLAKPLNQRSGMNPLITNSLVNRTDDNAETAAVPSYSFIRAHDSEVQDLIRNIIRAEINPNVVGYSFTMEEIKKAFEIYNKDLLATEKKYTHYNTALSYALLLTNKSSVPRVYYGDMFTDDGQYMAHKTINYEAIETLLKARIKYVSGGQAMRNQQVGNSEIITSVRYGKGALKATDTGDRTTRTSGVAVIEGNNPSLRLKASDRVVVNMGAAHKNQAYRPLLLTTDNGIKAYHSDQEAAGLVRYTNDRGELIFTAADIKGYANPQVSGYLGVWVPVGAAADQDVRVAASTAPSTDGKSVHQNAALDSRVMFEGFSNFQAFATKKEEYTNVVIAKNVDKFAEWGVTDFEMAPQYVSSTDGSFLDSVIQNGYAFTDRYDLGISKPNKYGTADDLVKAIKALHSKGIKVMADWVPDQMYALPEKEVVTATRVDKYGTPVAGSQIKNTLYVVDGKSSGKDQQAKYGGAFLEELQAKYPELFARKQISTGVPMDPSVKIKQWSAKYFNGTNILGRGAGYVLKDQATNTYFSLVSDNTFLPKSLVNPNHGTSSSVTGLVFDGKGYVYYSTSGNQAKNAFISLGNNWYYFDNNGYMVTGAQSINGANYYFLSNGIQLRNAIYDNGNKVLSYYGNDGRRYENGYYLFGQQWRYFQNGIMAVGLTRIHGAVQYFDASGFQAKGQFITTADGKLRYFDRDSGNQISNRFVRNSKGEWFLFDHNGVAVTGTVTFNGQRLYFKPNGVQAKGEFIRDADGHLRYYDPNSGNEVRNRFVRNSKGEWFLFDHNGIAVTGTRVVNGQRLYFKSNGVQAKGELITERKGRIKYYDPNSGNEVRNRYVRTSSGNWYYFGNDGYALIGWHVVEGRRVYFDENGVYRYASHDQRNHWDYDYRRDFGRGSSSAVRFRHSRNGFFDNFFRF
T1 sequence (P49331 whole entry): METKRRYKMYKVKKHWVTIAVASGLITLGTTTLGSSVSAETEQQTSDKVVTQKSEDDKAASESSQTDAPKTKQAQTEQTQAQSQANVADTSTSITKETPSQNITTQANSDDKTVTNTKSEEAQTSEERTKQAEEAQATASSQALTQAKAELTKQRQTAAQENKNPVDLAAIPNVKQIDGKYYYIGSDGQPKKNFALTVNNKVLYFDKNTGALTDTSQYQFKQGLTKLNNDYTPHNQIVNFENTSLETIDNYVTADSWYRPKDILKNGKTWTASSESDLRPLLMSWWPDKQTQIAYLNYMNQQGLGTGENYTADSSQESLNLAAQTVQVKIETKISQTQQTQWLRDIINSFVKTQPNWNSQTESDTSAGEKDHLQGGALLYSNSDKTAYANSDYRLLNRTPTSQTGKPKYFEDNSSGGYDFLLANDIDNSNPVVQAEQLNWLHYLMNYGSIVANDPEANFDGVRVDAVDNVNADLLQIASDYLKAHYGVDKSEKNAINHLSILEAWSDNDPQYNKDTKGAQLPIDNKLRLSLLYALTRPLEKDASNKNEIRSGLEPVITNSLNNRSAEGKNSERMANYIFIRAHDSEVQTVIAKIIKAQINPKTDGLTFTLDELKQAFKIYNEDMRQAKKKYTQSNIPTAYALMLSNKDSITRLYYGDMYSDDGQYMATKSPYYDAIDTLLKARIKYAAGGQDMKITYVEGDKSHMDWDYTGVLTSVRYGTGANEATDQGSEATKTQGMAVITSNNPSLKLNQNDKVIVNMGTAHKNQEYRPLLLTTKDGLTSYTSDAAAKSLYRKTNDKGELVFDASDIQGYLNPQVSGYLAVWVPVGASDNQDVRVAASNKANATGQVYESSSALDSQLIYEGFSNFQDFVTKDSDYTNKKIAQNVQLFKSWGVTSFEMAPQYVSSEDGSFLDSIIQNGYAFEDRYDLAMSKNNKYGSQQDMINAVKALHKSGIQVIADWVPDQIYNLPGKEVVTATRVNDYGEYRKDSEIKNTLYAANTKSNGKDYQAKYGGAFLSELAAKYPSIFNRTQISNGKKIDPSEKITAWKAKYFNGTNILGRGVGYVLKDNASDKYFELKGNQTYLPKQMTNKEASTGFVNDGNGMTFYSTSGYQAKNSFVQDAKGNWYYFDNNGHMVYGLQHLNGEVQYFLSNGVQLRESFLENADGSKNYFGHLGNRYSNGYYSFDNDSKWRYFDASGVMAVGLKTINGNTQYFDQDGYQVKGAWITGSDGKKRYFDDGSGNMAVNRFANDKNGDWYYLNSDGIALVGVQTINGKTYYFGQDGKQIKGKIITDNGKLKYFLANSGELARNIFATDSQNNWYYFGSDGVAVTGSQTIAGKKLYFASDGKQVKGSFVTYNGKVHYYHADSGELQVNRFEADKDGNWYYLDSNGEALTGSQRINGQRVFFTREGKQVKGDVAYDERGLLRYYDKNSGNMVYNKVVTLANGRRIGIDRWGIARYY
T4 sequence (P08987 35-1476): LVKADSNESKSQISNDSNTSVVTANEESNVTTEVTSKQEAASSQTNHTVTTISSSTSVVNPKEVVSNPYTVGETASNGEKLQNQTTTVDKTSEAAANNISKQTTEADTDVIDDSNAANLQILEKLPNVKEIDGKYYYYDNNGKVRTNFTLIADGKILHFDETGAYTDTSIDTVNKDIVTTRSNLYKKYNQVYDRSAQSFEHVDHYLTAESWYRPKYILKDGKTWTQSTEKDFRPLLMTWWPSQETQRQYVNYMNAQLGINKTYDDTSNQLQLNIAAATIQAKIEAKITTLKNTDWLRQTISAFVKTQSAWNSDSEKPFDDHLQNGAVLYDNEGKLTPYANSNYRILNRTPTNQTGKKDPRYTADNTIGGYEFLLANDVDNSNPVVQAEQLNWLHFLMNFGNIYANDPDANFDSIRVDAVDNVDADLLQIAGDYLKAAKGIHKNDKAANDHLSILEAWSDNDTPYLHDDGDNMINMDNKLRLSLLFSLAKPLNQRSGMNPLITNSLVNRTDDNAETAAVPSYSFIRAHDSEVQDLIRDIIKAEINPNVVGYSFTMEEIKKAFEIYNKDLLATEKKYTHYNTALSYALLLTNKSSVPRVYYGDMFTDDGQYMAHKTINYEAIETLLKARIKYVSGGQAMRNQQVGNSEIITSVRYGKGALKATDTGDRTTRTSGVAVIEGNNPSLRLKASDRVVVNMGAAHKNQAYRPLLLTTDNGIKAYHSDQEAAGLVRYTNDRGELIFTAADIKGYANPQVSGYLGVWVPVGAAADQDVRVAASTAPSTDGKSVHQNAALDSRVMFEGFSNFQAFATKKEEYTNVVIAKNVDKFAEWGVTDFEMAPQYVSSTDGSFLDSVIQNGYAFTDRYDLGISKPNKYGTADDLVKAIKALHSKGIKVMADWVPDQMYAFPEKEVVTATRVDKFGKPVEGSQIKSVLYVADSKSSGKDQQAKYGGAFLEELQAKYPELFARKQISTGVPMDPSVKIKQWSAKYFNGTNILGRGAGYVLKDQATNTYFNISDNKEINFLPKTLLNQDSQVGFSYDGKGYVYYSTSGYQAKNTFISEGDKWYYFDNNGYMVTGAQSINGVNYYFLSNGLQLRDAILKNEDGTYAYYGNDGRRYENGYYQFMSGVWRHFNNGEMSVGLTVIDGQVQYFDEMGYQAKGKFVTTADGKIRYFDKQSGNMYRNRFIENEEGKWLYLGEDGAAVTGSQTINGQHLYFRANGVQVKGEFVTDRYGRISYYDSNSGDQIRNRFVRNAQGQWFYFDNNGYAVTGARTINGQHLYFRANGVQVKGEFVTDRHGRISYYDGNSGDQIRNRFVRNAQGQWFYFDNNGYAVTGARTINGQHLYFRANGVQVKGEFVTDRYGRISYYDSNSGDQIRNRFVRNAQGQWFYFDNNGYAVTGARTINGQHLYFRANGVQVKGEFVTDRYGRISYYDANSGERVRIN

## O=C1C[C@@H](c2ccccc2)Oc2cc(O)cc(O)c21 [Pinocembrin]
GTF D [1]; 125 μM
  GTF D sol. % of Inhib.: 1.5 (0.1) %
GTF D [1]; 250 μM
  GTF D sol. % of Inhib.: 4.8 (2.7) %
GTF D [1]; 500 μM
  GTF D sol. % of Inhib.: 14.9 (4.2) %
GTF C [2]; 125 μM
  GTF C sol. % of Inhib.: 0.0 (0.7) %
GTF C [2]; 250 μM
  GTF C sol. % of Inhib.: 8.5 (3.2) %
GTF C [2]; 500 μM
  GTF C sol. % of Inhib.: 17.2 (4.2) %
GTF Ss [3]; 125 μM
  GTF Ss sol. % of Inhib.: 25.7 (4.1) %
GTF Ss [3]; 250 μM
  GTF Ss sol. % of Inhib.: 32.6 (6.8) %
GTF Ss [3]; 500 μM
  GTF Ss sol. % of Inhib.: 45.7 (8.3) %
[4]; all strains tested
  MIC: 64 µg/mL
[4]; [13]
  MIC: 250 µM
GTF B [5]; 125 μM
  GTF B sol. % of Inhib.: 3.7 (5.2) %
GTF B [5]; 250 μM
  GTF B sol. % of Inhib.: 7.2 (1.6) %
GTF B [5]; 500 μM
  GTF B sol. % of Inhib.: 15.9 (4.7) %
[6]; S. sobrinus 6715
  MBC: 128 µg/mL
[6]; Streptococcus sobrinus 6715
  MBC: 500 µM
  MIC: 250 µM (≈ 64.1 µg/mL)
[7]
  MBC: >500 µM
  MIC: 250 µM (≈ 64.1 µg/mL)
[8]
  MBC: >500 µM
  MIC: 250 µM (≈ 64.1 µg/mL)
GTF C [9]; 125 μM
  GTF C surf. % of Inhib.: 0.0 (0.0) %
GTF C [9]; 250 μM
  GTF C surf. % of Inhib.: 0.4 (0.1) %
GTF C [9]; 500 μM
  GTF C surf. % of Inhib.: 13.5 (4.9) %
GTF B [10]; 125 μM
  GTF B surf. % of Inhib.: 0.7 (3.3) %
GTF B [10]; 250 μM
  GTF B surf. % of Inhib.: 8.8 (4.3) %
GTF B [10]; 500 μM
  GTF B surf. % of Inhib.: 18.9 (5.4) %
GTF D [11]; 125 μM
  GTF D surf. % of Inhib.: 0.0 (0.7) %
GTF D [11]; 250 μM
  GTF D surf. % of Inhib.: 8.2 (2.7) %
GTF D [11]; 500 μM
  GTF D surf. % of Inhib.: 15.5 (6.2) %
GTF Ss [12]; 125 μM
  GTF Ss surf. % of Inhib.: 0.0 (0.2) %
GTF Ss [12]; 250 μM
  GTF Ss surf. % of Inhib.: 0.0 (4.2) %
GTF Ss [12]; 500 μM
  GTF Ss surf. % of Inhib.: 10.5 (2.7) %

## COc1cc(O)c2c(c1)O[C@H](c1ccc(O)cc1)CC2=O [Sakuranetin]
[6]; Streptococcus sobrinus 6715
  MBC: >500 µM
  MIC: 500 µM (≈ 143 µg/mL)
[7]
  MBC: >500 µM
  MIC: >500 µM
[8]
  MBC: >500 µM
  MIC: >500 µM

## O=c1c(O)c(-c2ccc(O)cc2)oc2cc(O)cc(O)c12 [Kaempferol]
GTF D [1]; [14]
  inhibition at 125 µM: 39.1%
  inhibition at 250 µM: 76.7%
  inhibition at 500 µM: 86.7%
GTF C [2]; [15]
  inhibition at 125 µM: 41.9%
  inhibition at 250 µM: 82.2%
  inhibition at 500 µM: 90.2%
GTF Ss [3]; [16]
  inhibition at 125 µM: 37.6%
  inhibition at 250 µM: 43.1%
  inhibition at 500 µM: 88.9%
[4]; Streptococcus mutans
  MIC: > 500 µM
GTF B [5]; [17]
  inhibition at 125 µM: 32.4%
  inhibition at 250 µM: 80.6%
  inhibition at 500 µM: 90.4%
GTF C [9]; [18]
  inhibition at 125 µM: 24.2%
  inhibition at 250 µM: 25.8%
  inhibition at 500 µM: 35.2%
GTF B [10]; [19]
  inhibition at 125 µM: 9.9%
  inhibition at 250 µM: 27.8%
  inhibition at 500 µM: 40.2%
GTF D [11]; [20]
  inhibition at 125 µM: 20.4%
  inhibition at 250 µM: 23.5%
  inhibition at 500 µM: 28.5%
GTF Ss [12]; [21]
  inhibition at 125 µM: 9.7%
  inhibition at 250 µM: 8.8%
  inhibition at 500 µM: 19.2%

## O=C(O)/C=C/c1ccc(O)c(O)c1 [Caffeic acid]
[4]; [22]
  MIC: > 500 µM

## O=C(O)/C=C/c1ccc(O)cc1 [p-Coumaric acid]
[4]; [22]
  MIC: > 500 µM

## CC(=O)O[C@H]1C(=O)c2c(O)cc(O)cc2O[C@@H]1c1ccccc1 [Pinobanksin-3-acetate]
GTF D [1]; 125 μM
  GTF D sol. % of Inhib.: 5.5 (4.5) %
GTF D [1]; 250 μM
  GTF D sol. % of Inhib.: 2.7 (3.3) %
GTF D [1]; 500 μM
  GTF D sol. % of Inhib.: 3.5 (2.1) %
GTF C [2]; 125 μM
  GTF C sol. % of Inhib.: 0.0 (0.0) %
GTF C [2]; 250 μM
  GTF C sol. % of Inhib.: 3.5 (4.2) %
GTF C [2]; 500 μM
  GTF C sol. % of Inhib.: 16.7 (4.3) %
GTF Ss [3]; 125 μM
  GTF Ss sol. % of Inhib.: 4.6 (5.7) %
GTF Ss [3]; 250 μM
  GTF Ss sol. % of Inhib.: 22.8 (3.6) %
GTF Ss [3]; 500 μM
  GTF Ss sol. % of Inhib.: 30.5 (7.2) %
[4]; all strains tested
  MIC: 157 µg/mL
[4]; [13]
  MIC: 500 µM
GTF B [5]; 125 μM
  GTF B sol. % of Inhib.: 0.0 (0.8) %
GTF B [5]; 250 μM
  GTF B sol. % of Inhib.: 7.7 (3.5) %
GTF B [5]; 500 μM
  GTF B sol. % of Inhib.: 18.9 (2.8) %
[6]; Streptococcus sobrinus 6715
  MBC: >500 µM
  MIC: 250 µM (≈ 78.6 µg/mL)
[7]
  MBC: >500 µM
  MIC: 500 µM (≈ 157 µg/mL)
[8]
  MBC: >500 µM
  MIC: 500 µM (≈ 157 µg/mL)
GTF C [9]; 125 μM
  GTF C surf. % of Inhib.: 0.0 (0.1) %
GTF C [9]; 250 μM
  GTF C surf. % of Inhib.: 0.0 (0.0) %
GTF C [9]; 500 μM
  GTF C surf. % of Inhib.: 0.0 (3.3) %
GTF B [10]; 125 μM
  GTF B surf. % of Inhib.: 9.4 (4.8) %
GTF B [10]; 250 μM
  GTF B surf. % of Inhib.: 7.3 (2.1) %
GTF B [10]; 500 μM
  GTF B surf. % of Inhib.: 10.3 (3.5) %
GTF D [11]; 125 μM
  GTF D surf. % of Inhib.: 0.0 (0.0) %
GTF D [11]; 250 μM
  GTF D surf. % of Inhib.: 4.5 (2.0) %
GTF D [11]; 500 μM
  GTF D surf. % of Inhib.: 10.1 (2.8) %
GTF Ss [12]; 125 μM
  GTF Ss surf. % of Inhib.: 0.0 (0.6) %
GTF Ss [12]; 250 μM
  GTF Ss surf. % of Inhib.: 0.0 (2.7) %
GTF Ss [12]; 500 μM
  GTF Ss surf. % of Inhib.: 9.9 (5.9) %
